Values joined by “and” are separate entries in the source; they are usually repeats but may differ in a detail not shown here. Equal entries are not always repeated. Where two headings read alike, the source gives them in different places.
Legend:
VEGFR2 = system: VEGFR2; design: method as in S-inhibitor; settings: ref S-inhibitor; cited from earlier work
EGFR = system: EGFR; design: method as in S-inhibitor; settings: ref S-inhibitor; cited from earlier work
HER2/ErbB2 = system: HER2/ErbB2; design: method as in S-inhibitor; settings: ref S-inhibitor; cited from earlier work
Flt = system: Flt; design: method as in S-inhibitor; settings: ref S-inhibitor; cited from earlier work
[1] = system: Toxoplasma gondii RH-2F tachyzoites; test: microbe, parasite or virus in culture; settings: 72 h
CB2 = biological target: CB2; design: method as in S-inhibitor; settings: ref S-inhibitor; cited from earlier work
CDK1/cyclin B = system: CDK1/cyclin B; design: method as in S-inhibitor; settings: ref S-inhibitor; cited from earlier work
CDK3/Cyclin E = settings: read-out: IC50, CDK3/Cyclin E; ref S-inhibitor; cited from earlier work
CDK4/cyclin D1 = settings: read-out: IC50, CDK4/Cyclin D1; ref S-inhibitor; cited from earlier work
CDK5/p35 = settings: read-out: IC50, CDK5/p35; ref S-inhibitor; cited from earlier work
CDK6/Cyclin D3 = settings: read-out: IC50, CDK6/Cyclin D3; ref S-inhibitor; cited from earlier work
Akt1 = system: Akt1; design: method as in S-inhibitor; settings: ref S-inhibitor; cited from earlier work
Akt2 = system: Akt2; design: method as in S-inhibitor; settings: ref S-inhibitor; cited from earlier work
Akt3 = system: Akt3; design: method as in S-inhibitor; settings: ref S-inhibitor; cited from earlier work
S6K = system: S6K; design: method as in S-inhibitor; settings: ref S-inhibitor; cited from earlier work
MEK1 = system: MEK1; design: method as in library vendor description; settings: ref library vendor description; cited from earlier work
in vitro = settings: human, Host viability (%) mean
c-Met = system: c-Met; design: method as in S-inhibitor; settings: ref S-inhibitor; cited from earlier work
Ron = system: Ron; design: method as in S-inhibitor; settings: ref S-inhibitor; cited from earlier work
Tyro3 = system: Tyro3; design: method as in S-inhibitor; settings: ref S-inhibitor; cited from earlier work
HCV NS5A = system: HCV NS5A; design: method as in S-inhibitor; settings: ref S-inhibitor; cited from earlier work
hSGLT2 = settings: read-out: EC50, hSGLT2; ref S-inhibitor; cited from earlier work
[2] = biological target: PLK1 (Polo-like kinase 1); design: method as in S-inhibitor; settings: ref S-inhibitor; cited from earlier work
Aurora B = system: Aurora B; design: method as in S-inhibitor; settings: ref S-inhibitor; cited from earlier work
[3] = biological target: T. brucei Aurora kinase-1 (TbAUK1); design: method as in S-inhibitor; settings: ref S-inhibitor; cited from earlier work
PDGFRα = system: PDGFRα; design: method as in S-inhibitor; settings: ref S-inhibitor; cited from earlier work
PDGFRβ = system: PDGFRβ; design: method as in S-inhibitor; settings: ref S-inhibitor; cited from earlier work
VEGFR1 = system: VEGFR1; design: method as in S-inhibitor; settings: ref S-inhibitor; cited from earlier work
ATM = system: ATM; design: method as in S-inhibitor; settings: ref S-inhibitor; cited from earlier work
p38 MAPK = system: p38 MAPK; design: method as in S-inhibitor; settings: ref S-inhibitor; cited from earlier work
BACE1 = system: BACE1; design: method as in S-inhibitor; settings: two values given; ref S-inhibitor; cited from earlier work
Aβ secretion = system: Aβ secretion; design: method as in S-inhibitor; settings: ref S-inhibitor; read-out: EC50, decrease of Aβ secretion; cited from earlier work
HSP90β = system: HSP90β; design: method as in S-inhibitor; settings: ref S-inhibitor; cited from earlier work
[4] = system: Toxoplasma gondii RH-2F tachyzoites; settings: preliminary screen, mean
CDK4 = system: CDK4; design: method as in S-inhibitor; settings: ref S-inhibitor; cited from earlier work
CDK6 = system: CDK6; design: method as in S-inhibitor; settings: ref S-inhibitor; cited from earlier work
CDK2 = system: CDK2; design: method as in S-inhibitor; settings: ref S-inhibitor; cited from earlier work
CDK5 = system: CDK5; design: method as in S-inhibitor; settings: ref S-inhibitor; cited from earlier work
CDK7 = system: CDK7; design: method as in S-inhibitor; settings: ref S-inhibitor; cited from earlier work
PDPK1 = biological target: PDPK1; design: method as in S-inhibitor; settings: ref S-inhibitor; cited from earlier work
PI3Kγ = settings: read-out: IC50, PI3Kγ; ref S-inhibitor; cited from earlier work
[5] = system: LPS-induced TNF-α release; design: method as in S-inhibitor; settings: ref S-inhibitor; cited from earlier work
some cell lines = system: some cell lines; design: method as in S-inhibitor; settings: ref S-inhibitor; cited from earlier work
v-Abl = system: v-Abl; design: method as in library vendor description; settings: ref library vendor description; cited from earlier work
[6] = system: HCV NS3-4A serine protease; design: method as in S-inhibitor; settings: ref S-inhibitor; cited from earlier work
Tie2 = system: Tie2; design: method as in S-inhibitor; settings: ref S-inhibitor; cited from earlier work
LAP = system: LAP; design: method as in S-inhibitor; settings: ref S-inhibitor; cited from earlier work
PuSA = system: PuSA; design: method as in S-inhibitor; settings: ref S-inhibitor; cited from earlier work
Aminopeptidase N = biological target: Aminopeptidase N; design: method as in S-inhibitor; settings: ref S-inhibitor; cited from earlier work
CFTR = system: CFTR; design: method as in S-inhibitor; settings: ref S-inhibitor; cited from earlier work
MEK5 = system: MEK5; design: method as in S-inhibitor; settings: ref S-inhibitor; cited from earlier work
[7] = read-out: Parasite inhibition (%) mean, preliminary screen, mean
[8] = read-out: Parasite inhibition (%) mean

CCN1CCN(Cc2ccc(-c3cc4c(N[C@H](C)c5ccccc5)ncnc4[nH]3)cc2)CC1 [AEE788 (NVP-AEE788)]
IC50 (VEGFR2): 77 nM
IC50 (EGFR): 2 nM
IC50 (HER2/ErbB2): 6 nM
IC50 (Flt): 59 nM
inhibition of growth at 5 µM [1, 7]: -2.1%

CN1CCCCC1Cn1cc(C(=O)c2cc([N+](=O)[O-])ccc2I)c2ccccc21 (stereo not shown) [AM-1241]
Ki (CB2): 3.4 nM
inhibition of growth at 5 µM [1, 7]: -8.8%

O=C(NC1CCNCC1)c1[nH]ncc1NC(=O)c1c(Cl)cccc1Cl [AT7519]
IC50 (CDK3/Cyclin E): 360 nM
IC50 (CDK5/p35): 13 nM
IC50 (CDK6/Cyclin D3): 170 nM
inhibition of growth at 5 µM [1, 7]: -11.7%

Clc1ccc(C2(c3ccc(-c4cn[nH]c4)cc3)CCNCC2)cc1 [AT7867]
IC50 (Akt1): 32 nM
IC50 (Akt2): 17 nM
IC50 (Akt3): 47 nM
IC50 (S6K): 85 nM
inhibition of growth at 5 µM [1, 7]: 46.4%

Cn1cnc2c(F)c(Nc3ccc(Br)cc3Cl)c(C(=O)NOCCO)cc21 [AZD6244 (Selumetinib)]
IC50 (MEK1): 14 nM
inhibition of growth at 5 µM [1, 7]: 0.6%

CCOc1ccn(-c2ccc(F)cc2)c(=O)c1C(=O)Nc1ccc(Oc2ccnc(N)c2Cl)c(F)c1 [BMS 777607]
viability at 72 h (in vitro): 72%
IC50 (c-Met): 3.9 nM
IC50 (Ron): 1.8 nM
IC50 (Tyro3): 4.3 nM
inhibition of growth at 5 µM [1, 7]: 80.6%

COC(=O)N[C@H](C(=O)N1CCC[C@H]1c1ncc(-c2ccc(-c3ccc(-c4cnc([C@@H]5CCCN5C(=O)[C@@H](NC(=O)OC)C(C)C)[nH]4)cc3)cc2)[nH]1)C(C)C [Daclatasvir (BMS-790052)]
EC50 (HCV NS5A): 0.009 to 0.05 nM
inhibition of growth at 5 µM [1, 7]: 3.9%

CCOc1ccc(Cc2cc([C@@H]3O[C@H](CO)[C@@H](O)[C@H](O)[C@H]3O)ccc2Cl)cc1 [Dapagliflozin]
EC50 (hSGLT2): 1.1 nM
inhibition of growth at 5 µM [1, 8]: 1.9%

COc1ccc(S(=O)(=O)N(C(C)=O)c2ccccc2/C=C/c2cc[n+]([O-])cc2)cc1 [HMN-214]
IC50 [2]: 118 nM
inhibition of growth at 5 µM [1, 7]: -11.6%

CCS(=O)(=O)Nc1ccc2c(c1)/C(=C(/Nc1ccc(CN3CCCCC3)cc1)c1ccccc1)C(=O)N2 [Hesperadin]
IC50 (Aurora B): 250 nM
IC50 [3]: 40 nM
inhibition of growth at 5 µM [1, 7]: 66.8%

CCCNC(=O)Nc1ccc(Oc2ncnc3cc(OC)c(OC)cc23)cc1Cl [KRN 633]
viability at 72 h (in vitro): 70.6%
IC50 (VEGFR2): 160 nM
IC50 (PDGFRα): 965 nM
IC50 (PDGFRβ): 9850 nM
IC50 (VEGFR1): 170 nM
inhibition of growth at 5 µM [1, 7]: 73.8%

C[C@@H]1CN(CC(=O)Nc2ccc3c(c2)Cc2cccc(-c4cc(=O)cc(N5CCOCC5)o4)c2S3)C[C@H](C)O1 [KU-60019]
IC50 (ATM): 6.3 nM
inhibition of growth at 5 µM [1, 7]: 2%

CC(C)(C)Cn1c(N)nc2ccc(-c3[nH]c(C(C)(C)C)nc3-c3ccc(F)cc3)nc21 [LY2228820]
IC50 (p38 MAPK): 7 nM
inhibition of growth at 5 µM [1, 7]: -12.7%

C[C@@]1(c2cc(-c3cncnc3)c(F)cc2F)CCSC(N)=N1 [LY2811376]
EC50 (Aβ secretion): ~300 nM
inhibition of growth at 5 µM [1, 7]: -19.7%

CCNC(=O)c1cc2c(-c3cc(OCCN4CCCC4)c(Cl)cc3Cl)nc(N)nc2s1 [NVP-BEP800]
IC50 (HSP90β): 58 nM
inhibition of growth at 5 µM [1, 8]: 0.7%

CC(=O)c1c(C)c2cnc(Nc3ccc(N4CCNCC4)cn3)nc2n(C2CCCC2)c1=O.O=S(=O)(O)CCO [PD 0332991 (Palbociclib) Isethionate]
Parasite inhibition (%) mean [4]: 2.6%
IC50 (CDK6): 16 nM

CC(C)CC(=O)Nc1[nH]nc2c1CN(C(=O)C1CCN(C)CC1)C2(C)C [PHA-793887]
IC50 (CDK2): 8 nM
IC50 (CDK5): 5 nM
IC50 (CDK7): 10 nM
inhibition of growth at 5 µM [1, 7]: 0.6%

CCCCCCCCCCCCc1ccc(S(=O)(=O)Nc2nncs2)cc1 [PHT-427]
Ki (PDPK1): 5200 nM
inhibition of growth at 5 µM [1, 7]: 35.7%

CC(=O)Nc1nc(C)c(-c2ccc(Cl)c(S(=O)(=O)NCCO)c2)s1 [PIK-93]
inhibition of growth at 5 µM [1, 8]: 1.5%

Nc1cccc2c1C(=O)N(C1CCC(=O)NC1=O)C2=O (stereo not shown) [Pomalidomide]
IC50 [5]: 13 nM
inhibition of growth at 5 µM [1, 7]: 0.8%

C#CCC(Cc1cnc2nc(N)nc(N)c2n1)c1ccc(C(=O)N[C@@H](CCC(=O)O)C(=O)O)cc1 (stereo partly shown) [Pralatrexate (Folotyn)]
IC50 (some cell lines): < 300 nM
inhibition of growth at 5 µM [1, 7]: 20.4%

CN1CCN(CCOc2cc(OC3CCOCC3)c3c(Nc4c(Cl)ccc5c4OCO5)ncnc3c2)CC1 [Saracatinib (AZD0530)]
IC50 (v-Abl): 30 nM
inhibition of growth at 5 µM [1, 7]: 32.6%

CCC[C@H](NC(=O)[C@H]1[C@H]2CCC[C@H]2CN1C(=O)[C@@H](NC(=O)[C@@H](NC(=O)c1cnccn1)C1CCCCC1)C(C)(C)C)C(=O)C(=O)NC1CC1 [Telaprevir (VX-950)]
IC50 [6]: 350 nM
inhibition of growth at 5 µM [1, 7]: 4.4%

COc1ccc2cc(-c3[nH]c(-c4ccc([S+](C)[O-])cc4)nc3-c3ccncc3)ccc2c1 (stereo not shown) [Tie2 kinase inhibitor]
IC50 (Tie2): 250 nM
inhibition of growth at 5 µM [1, 7]: 13%

CC(C)C[C@@H](C(=O)N[C@H](C(=O)OC1CCCC1)c1ccccc1)[C@H](O)C(=O)NO [Tosedostat (CHR2797)]
viability at 72 h (in vitro): 88.8%
IC50 (LAP): 100 nM
IC50 (PuSA): 150 nM
IC50 (Aminopeptidase N): 220 nM
inhibition of growth at 5 µM [1, 7]: 85.6%

Cc1ccc(NC(=O)C2(c3ccc4c(c3)OC(F)(F)O4)CC2)nc1-c1cccc(C(=O)O)c1 [VX-809]
EC50 (CFTR): 100 nM
inhibition of growth at 5 µM [1, 7]: 9.4%

BIX 02188
Parasite inhibition (%) mean [4]: 13.7%
IC50 (MEK5): 4.3 nM
